Measured values as given in US8741852B2, “Peptides having antimicrobial activity” (Universiti Malaya, priority 2012, dated 2014).
Where two headings read alike, the source gives them in different places. No end group written: not given here.

Legend:
K. pneumoniae = format: cell-based, Klebsiella pneumoniae
Procedure: (§1) Apart from Streptococcus pneumonia, the antimicrobial peptides are also tested for antimicrobial activity against eight common bacterial pathogens of both gram-types as shown in Table 2. […] Testing against the gram-negative Acinetobacter baumannii (31.25 μg/ml) and Citrobacter spp.

Citrobacter spp. = format: cell-based
Procedure: as §1

[1] = test system: eight common bacterial pathogens of both gram-types; format: cell-based
Procedure: as §1

A. baumannii = format: cell-based, Acinetobacter baumannii
Procedure: as §1

[2] = test system: penicillin-resistant pneumococci
Text: (§2) The antimicrobial peptides are thereafter tested using broth microdilution assay 5×10^5 cfu/ml against a total of 60 pneumococcal isolates (20 isolates for each penicillin-susceptible, -intermediate, and -resistant pneumococci) to determine their minimum inhibitory concentration (MIC).

[3] = test system: penicilin-intermediate pneumococci
Text: as §2

[4] = test system: penicilin-susceptible pneumococci
Text: as §2

E. cloacae = test system: E. cloacae
Procedure: as §1

S. aureus = format: cell-based, Staphylococcus aureus
Procedure: as §1

Streptococcus pneumoniae = assay: MIC by broth microdilution against all 60 pneumococcal isolates (overall); format: cell-based
Text: as §2

bacterial pathogens = assay: Spectrum of antibacterial activity (summary in words); format: cell-based; details: against Streptococcus pneumoniae, Acinetobacter baumannii, Staphylococcus aureus, methicillin-resistant Staphylococcus aureus, Escherichia coli, Citrobacter spp.
E. coli = format: cell-based, Escherichia coli
Procedure: as §1

P. aeruginosa = format: cell-based, Pseudomonas aeruginosa
Procedure: as §1

[5] = Pseudomonas aeruginosa, Enterococcus cloacae, Klebsiella pneumoniae
[6] = Pseudomonas aeruginosa, Enterococcus cloacae

Row | Substance | MIC (K. pneumoniae) | EP (effective percentage, isolates inhibited within the effective range) [2] | ER (effective range of minimum inhibitory concentration) [2] | EP (effective percentage, isolates inhibited within the effective range) [3] | ER (effective range of minimum inhibitory concentration) [3] | EP (effective percentage, isolates inhibited within the effective range) [4] | ER (effective range of minimum inhibitory concentration) [4] | MIC (E. cloacae) | MIC (S. aureus) | Overall EP (Streptococcus pneumoniae) | MIC (Citrobacter spp.) | antimicrobial activity (bacterial pathogens; [5]) | antimicrobial activity (bacterial pathogens; [6]) | further results
1 | GLFDIWAWWRWRR-NH2 (C-terminus assumed) [SEQ ID NO:2, Gly-Leu-Phe-Asp-Ile-Trp-Ala-Trp-Trp-Arg-Trp-Arg-Arg] | >250 mg/L | 100% | 15.63 to 250 mg/L | 100% | 7.81 to 250 mg/L | 100% | 15.63 to 250 mg/L | >250 mg/L | 31.25 mg/L | 100% |  |  |  | MIC (Citrobacter spp.; Gram-negative): 62.5 mg/L; activity against the other bacteria ([1]; bacteria of Table 2 other than S. aureus, MRSA, A. baumannii, Citrobacter spp., E. coli): non-active; MIC (A. baumannii; Gram-negative): 31.25 mg/L; MIC level against Staphylococcus aureus as compared to methicillin-resistant Staphylococcus aureus (S. aureus): two fold lower; antimicrobial activity (bacterial pathogens): has antimicrobial activity; MIC (E. coli; Gram-negative): 250 mg/L
2 | GLFDIWKKLRWRR-NH2 (C-terminus assumed) [SEQ ID NO:5, Gly-Leu-Phe-Asp-Ile-Trp-Lys-Lys-Leu-Arg-Trp-Arg-Arg] | 250 mg/L | 100% | 31.25 to 125 mg/L | 100% | 15.63 to 125 mg/L | 100% | 15.63 to 125 mg/L | 125 mg/L | 125 mg/L | 100% | 31.25 mg/L | have antimicrobial activity |  | range of minimum inhibitory concentrations [1]: 31.25 to 125 mg/L; MIC (A. baumannii): 31.25 mg/L; MIC (P. aeruginosa): 31.25 mg/L; MIC (E. coli): 31.25 mg/L
3 | GLFDIWKKWRWRR-NH2 (C-terminus assumed) [SEQ ID NO:4, Gly-Leu-Phe-Asp-Ile-Trp-Lys-Lys-Trp-Arg-Trp-Arg-Arg] |  |  |  |  |  |  |  |  |  | 100% |  |  | have antimicrobial activity | 
4 | GLFDIWKWWRWRR-NH2 (C-terminus assumed) [SEQ ID NO:3, Gly-Leu-Phe-Asp-Ile-Trp-Lys-Trp-Trp-Arg-Trp-Arg-Arg] | 62.5 mg/L | 100% | 15.63 to 62.5 mg/L | 100% | 7.81 to 250 mg/L | 100% | 7.81 to 62.5 mg/L | 31.25 mg/L |  | 100% | 15.63 mg/L | have antimicrobial activity |  | range of minimum inhibitory concentration [1]: 7.81 to 125 mg/L
5 | GLFDKWAWWRWRR-NH2 (C-terminus assumed) [SEQ ID NO:1, Gly-Leu-Phe-Asp-Lys-Trp-Ala-Trp-Trp-Arg-Trp-Arg-Arg] |  |  |  |  |  |  |  |  |  | 100% |  |  | have antimicrobial activity | 
